target: T1, Autotaxin enzyme (ATX) (Homo sapiens, UniProt Q13822); assay: In vitro ATX assay (enzymatic ATX inhibition, LPC 14:0 substrate, choline oxidase/HRP absorbance readout); assay type: biochemical; conditions: 0.3 mM LPC 14:0, 37° C., 4 hours, absorbance 555 nm
T1 construct: purchased Echelon Biosciences, Inc. E-4000
Protocol: • Assay buffer: 100 mM Tris-HCl, pH 9.0, 500 mM NaCl, 5 mM MgCl2, 30 μM CoCl2, 0.05% Triton X-100 • Assay buffer II: 4.5 mM 4-AAP, 2.7 mM TOOS, 21.2 U/mL HRP, 3 U/mL CO, In 50 mM Tris-HCl pH 8.0, 4.5 mM MgCl2
A compound preparation plate (Nunc 249944) was prepared by adding 30 mM stock solution (in DMSO) of test compound and performing a serial full-log dilution down to 30 nM. Two μL/well were transferred from the first compound prep plate to a compound dilution plate (Corning, 3641) and 198 μL assay buffer I was added for a […].
A 10 ng/mL solution of ATX was prepared by diluting in assay buffer I, and 80 μL/well were added to the assay plate (Corning, 3641); negative control wells contained 80 μL/well assay buffer I only (no ATX). Ten μL/well from the compound dilution plate (containing serially diluted test compound or DMSO) were added to the assay plate, which was then incubated at 37° C. for 15 minutes. A solution of LPC 14:0 was prepared in assay buffer I at 3 mM and 10 μl/well were added to the assay plate, for a final concentration of 0.3 mM LPC, and returned to 37° C. incubator for 4 hours. After 4 hour incubation, 100 μL/well of assay buffer II was added to all wells of the assay plate. The plate was incubated at RT for 15 minutes, prior to reading on FlexStation in absorbance mode, 555 nm. Results in the enzymatic ATX inhibition assay are provided for compounds of formula (I). An IC50 value of “A” is less than 100 nM, “B” is equal to or greater than 100 nM but less than 1 μM, “C” is equal to or greater than 1 μM.

**Q.** `O=C(c1ccc(NC2Cc3ccc(Cl)cc3C2)nc1)N1CCC12COC2` (stereo not drawn) [Example 78, (6-((5-Chloro-2,3-dihydro-1H-inden-2-yl)amino)pyridin-3-yl)(6-oxa-1-azaspiro[3.3]heptan-1-yl)methanone] was tested. Which IC50 did it give?
**A.** 100 to 1000 nM

**Q.** With `O=C(c1cnc(NCc2cc(OC(F)(F)F)cc(C3CC3)c2)nc1)N1CCC12CCC2` [Example 79, (2-((3-Cyclopropyl-5-(trifluoromethoxy)benzyl)amino)pyrimidin-5-yl)(1-azaspiro[3.3]heptan-1-yl)methanone] as the compound, how does the IC50 read?
**A.** < 100 nM

**Q.** How did the IC50 turn out when `O=C(c1cnc(NCc2cc(OC(F)(F)F)cc(C3CC3)c2)nc1)N1CCC12COC2` [Example 80, (2-((3-cyclopropyl-5-(trifluoromethoxy)benzyl)ami-no)pyrimidin-5-yl)(6-oxa-1-azaspiro[3.3]heptan-1-yl)-methanone] was run?
**A.** < 100 nM

**Q.** `O=C(c1cnc(NCc2cc(OC(F)(F)F)cc(C3CC3)c2)nc1)N1CCC1` [Example 81, azetidin-1-yl(2-((3-cyclopropyl-5-(trifluoro-methoxy)benzyl)amino)-pyrimidin-5-yl)methanone] was tested. Which IC50 did it give?
**A.** < 100 nM

**Q.** How did the IC50 turn out when `O=C(c1cnc(NCc2cc(OC(F)(F)F)cc(C3CC3)c2)nc1)N1CC2(COC2)C1` [Example 82, (2-((3-cyclopropyl-5-(trifluoromethoxy)benzyl)ami-no)pyrimidin-5-yl)(2-oxa-6-azaspiro[3.3]heptan-6-yl)methanone] was run?
**A.** 100 to 1000 nM

**Q.** For `O=C(c1cnc(NCc2cc(OC(F)(F)F)cc(C3CC3)c2)nc1)N1CC(O)C1` [Example 83, (2-((3-cyclopropyl-5-(trifluoromethoxy)benzyl)ami-no)pyrimidin-5-yl)(3-hydroxyazetidin-1-yl)-methanone], which IC50 is on record?
**A.** 100 to 1000 nM

**Q.** For `CC(C)(O)C1CN(C(=O)c2cnc(NCc3cc(OC(F)(F)F)cc(C4CC4)c3)nc2)C1` [Example 84, (2-((3-cyclopropyl-5-(trifluoromethoxy)benzyl)ami-no)pyrimidin-5-yl)(3-(2-hydroxypropan-2-yl)azetidin-1-yl)methanone], which IC50 is on record?
**A.** 100 to 1000 nM

**Q.** With `O=C(c1cnc(NCc2cc(OC(F)(F)F)cc(C3CC3)c2)nc1)N1CC(F)C1` [Example 85, (2-((3-cyclopropyl-5-(trifluoromethoxy)benzyl)ami-no)pyrimidin-5-yl)(3-fluoroazetidin-1-yl)-methanone] as the compound, how does the IC50 read?
**A.** < 100 nM

**Q.** Which IC50 does the source give for `O=C(c1cnc(NCc2cc(OC(F)(F)F)cc(C3CC3)c2)nc1)N1CC(F)(F)C1` [Example 86, (2-((3-cyclopropyl-5-(trifluoromethoxy)benzyl)ami-no)pyrimidin-5-yl)(3,3-difluroazetidin-1-yl)-methanone] here?
**A.** 100 to 1000 nM

**Q.** How did the IC50 turn out when `CC1(O)CN(C(=O)c2cnc(NCc3cc(OC(F)(F)F)cc(C4CC4)c3)nc2)C1` [Example 87, (2-((3-cyclopropyl-5-(trifluoromethoxy)benzyl)ami-no)pyrimidin-5-yl)(3-hydroxy-3-methylazetidin-1-yl)methanone] was run?
**A.** 100 to 1000 nM

**Q.** How did the IC50 turn out when `CS(=O)(=O)C1CN(C(=O)c2cnc(NCc3cc(OC(F)(F)F)cc(C4CC4)c3)nc2)C1` [Example 88, (2-((3-cyclopropyl-5-(trifluoromethoxy)benzyl)ami-no)pyrimidin-5-yl)(3-(methylsulfonyl)azetidin-1-yl)methanone] was run?
**A.** 100 to 1000 nM

**Q.** With `CC1(C)CCN1C(=O)c1cnc(NCc2cc(OC(F)(F)F)cc(C3CC3)c2)nc1` [Example 89, (2-((3-cyclopropyl-5-(trifluoromethoxy)benzyl)ami-no)pyrimidin-5-yl)(2,2-dimethylazetidin-1-yl)methanone] as the compound, how does the IC50 read?
**A.** < 100 nM

**Q.** For `O=C(c1cnc(NCc2cc(OC(F)(F)F)cc(C3CC3)c2)nc1)N1CCc2cccnc21` [Example 90, (2-((3-cyclopropyl-5-(trifluoromethoxy)benzyl)ami-no)pyrimidin-5-yl)(2,3-dihydro-1H-pyrrolo[2,3-b]pyridin-1-yl)methanone], which IC50 is on record?
**A.** 100 to 1000 nM

**Q.** With `O=C(c1cnc(NCc2cc(OC(F)(F)F)cc(C3CC3)c2)nc1)N1CCc2cnccc21` [Example 91, (2-((3-cyclopropyl-5-(trifluoromethoxy)benzyl)ami-no)pyrimidin-5-yl)(2,3-dihydro-1H-pyrrolo[3,2-c]pyridin-1-yl)methanone] as the compound, how does the IC50 read?
**A.** 100 to 1000 nM

**Q.** Which IC50 does the source give for `CC(C)(C)OC(=O)N1CC2(CCN2C(=O)c2cnc(NCc3cc(OC(F)(F)F)cc(C4CC4)c3)nc2)C1` [Example 92, tert-butyl 1-(2-((3-cyclopropyl-5-(trifluoro-methoxy)benzyl)amino)py-rimidine-5-carbonyl)-1,6-diazaspiro[3.3]heptane-6-carboxylate] here?
**A.** < 100 nM

**Q.** Which IC50 does the source give for `CC1CC(C)N1C(=O)c1cnc(NCc2cc(OC(F)(F)F)cc(C3CC3)c2)nc1` (stereo not drawn) [Example 93, (2-((3-cyclopropyl-5-(trifluoromethoxy)benzyl)ami-no)pyrimidin-5-yl)(2,4-dimethylazetidin-1-yl)methanone] here?
**A.** < 100 nM

**Q.** With `COC[C@@H]1CCCN1C(=O)c1cnc(NCc2cc(OC(F)(F)F)cc(C3CC3)c2)nc1` [Example 94, (S)-(2-((3-cyclopropyl-5-(trifluoromethoxy)benzyl)ami-no)pyrimidin-5-yl)(2-(methoxymethyl)pyrrolidin-1-yl)methanone] as the compound, how does the IC50 read?
**A.** 100 to 1000 nM

**Q.** How did the IC50 turn out when `COC[C@H]1CCCN1C(=O)c1cnc(NCc2cc(OC(F)(F)F)cc(C3CC3)c2)nc1` [Example 95, (R)-(2-((3-cyclopropyl-5-(trifluoromethxoy)benzyl)ami-no)pyrimidin-5-yl)(2-(methoxymethyl)pyrrolidin-1-yl)methanone] was run?
**A.** 100 to 1000 nM

**Q.** Which IC50 does the source give for `O=C(c1cnc(NCc2cc(OC(F)(F)F)cc(C3CC3)c2)nc1)N1CCCC12COC2` [Example 96, (2-((3-cyclopropyl-5-(trifluoromethoxy)benzyl)ami-no)pyrimidin-5-yl)(2-oxa-5-azaspiro[3.4]octan-5-yl)methanone] here?
**A.** < 100 nM

**Q.** How did the IC50 turn out when `O=C(c1cnc(NCc2cc(OC(F)(F)F)cc(C3CC3)c2)nc1)N1CCC12CCOC2` (stereo not drawn) [Example 97, (2-((3-cyclopropyl-5-(trifluoromethoxy)benzyl)ami-no)pyrimidin-5-yl)(6-oxa-1-azaspiro[3.4]octan-1-yl)methanone] was run?
**A.** < 100 nM

**Q.** How did the IC50 turn out when `O=C(c1cnc(NCc2cc(OC(F)(F)F)cc(C3CC3)c2)nc1)N1CCc2ccncc21` [Example 98, (2-((3-cyclopropyl-5-(trifluoromethoxy)benzyl)ami-no)pyrimidin-5-yl)(2,3-dihydro-1H-pyrrolo[2,3-c]pyridin-1-yl)methanone] was run?
**A.** < 100 nM

**Q.** Which IC50 does the source give for `COCC1CN(C(=O)c2cnc(NCc3cc(OC(F)(F)F)cc(C4CC4)c3)nc2)C1` [Example 99, (2-((3-cyclopropyl-5-(trifluoromethoxy)benzyl)ami-no)pyrimidin-5-yl)(3-(methoxymethyl)azetidin-1-yl)methanone] here?
**A.** 100 to 1000 nM

**Q.** How did the IC50 turn out when `CN(C)CC1CN(C(=O)c2cnc(NCc3cc(OC(F)(F)F)cc(C4CC4)c3)nc2)C1` [Example 100, (2-((3-cyclopropyl-5-(trifluoromethoxy)benzyl)ami-no)pyrimidin-5-yl)(3-((dimethylamino)methyl)azeti-din-1-yl)methanone] was run?
**A.** 100 to 1000 nM

**Q.** Which IC50 does the source give for `O=C(c1cnc(NCc2cc(OC(F)(F)F)cc(C3CC3)c2)nc1)N1CCC12CCOCC2` [Example 101, (2-((3-cyclopropyl-5-(trifluoromethoxy)benzyl)ami-no)pyrimidin-5-yl)(7-oxa-1-azaspiro[3.5]nonan-1-yl)methanone] here?
**A.** < 100 nM

Source: patent publication US20210363152A1, “AMINOAZINE AMIDES” (Hoffmann-La Roche Inc., priority 2018, published 2021)
